Measured values taken from patent publication US11807644B2 (PMV Pharmaceuticals, Inc., priority 2020, dated 2023).

Target: T1, recombinant His-tag Y220C p53 DBD protein (Homo sapiens, UniProt P04637, Y220C)
T1 construct: recombinant His-tag Y220C p53 DBD protein (amino acids #˜94-312)
Test: In vitro DNA binding activity assay (TR-FRET): binding of His-tag Y220C p53 DBD to biotin-labeled consensus DNA
Assay type: biochemical
Settings: SC150 = concentration to increase DNA binding by […], His-tag Y220C p53 DBD, biotin-labeled consensus DNA

| SMILES | Y220C SC150 (μM) |
| --- | --- |
| CN1CC[C@@H](Nc2cccc3c2cc(-c2noc(CNC(=O)c4ccc(N5CCCC5)cc4)n2)n3CC(F)(F)F)[C@@H](F)C1 [Compound 243B, N-{[3-(4-{[(3S,4R)-3-fluoro-1-methylpiperidin-4-yl]amino}-1-(2,2,2-trifluoroethyl)-1H-indol-2-yl)-1,2,4-oxadiazol-5-yl]methyl}-4-(pyrrolidin-1-yl)benzamide] | * (* = 0 μM ≤ SC150 < 0.1 μM) |
| CN1CCC(C(=O)NCc2nnc(-c3cc4c(N[C@@H]5CCN(C)C[C@@H]5F)cccc4n3CC(F)(F)F)s2)CC1 (racemic) [Compound 40B, (+/−)-N-{[5-(4-{[(3R,4S)-3-fluoro-1-methylpiperidin-4-yl]amino}-1-(2,2,2-trifluoroethyl)-1H-indol-2-yl)-1,3,4-thiadiazol-2-yl]methyl}-1-methylpiperidine-4-carboxamide] | *** (*** = 0.5 μM ≤ SC150 < 1 μM) |
| CN1CCC(Nc2cccc3c2cc(-c2nnc(CNC(=O)C4CC4(F)F)s2)n3CC(F)(F)F)CC1 (racemic) [Compound 32B, (+/−)-2,2-difluoro-N-[(5-{4-[(1-methylpiperidin-4-yl)amino]-1-(2,2,2-trifluoroethyl)-1H-indol-2-yl}-1,3,4-thiadiazol-2-yl)methyl]cyclopropane-1-carboxamide] | ** (** = 0.1 μM ≤ SC150 < 0.5 μM) |
| CN1CC[C@@H](Nc2cccc3c2cc(-c2noc(CNC(=O)c4ccc5ccn(C)c5c4)n2)n3CC(F)(F)F)[C@@H](F)C1 [Compound 254B, N-{[3-(4-{[(3S,4R)-3-fluoro-1-methylpiperidin-4-yl]amino}-1-(2,2,2-trifluoroethyl)-1H-indol-2-yl)-1,2,4-oxadiazol-5-yl]methyl}-1-methyl-1H-indole-6-carboxamide] | * (* = 0 μM ≤ SC150 < 0.1 μM) |
| CN1CC[C@H](Nc2cccc3c2cc(-c2nnc(CNC(=O)c4ccccc4)o2)n3CC(F)(F)F)[C@H](F)C1 (racemic) [Compound 118B, (+/−)-N-{[5-(4-{[(3R,4S)-3-fluoro-1-methylpiperidin-4-yl]amino}-1-(2,2,2-trifluoroethyl)-1H-indol-2-yl)-1,3,4-oxadiazol-2-yl]methyl}benzamide] | ** (** = 0.1 μM ≤ SC150 < 0.5 μM) |
| CN(C)CC1(n2ccc(C(=O)NCc3nc(-c4cc5c(N[C@@H]6CCN(C)C[C@@H]6F)cccc5n4CC(F)(F)F)no3)c2)CC1 [Compound 482B, 1-{1-[(dimethylamino)methyl]cyclopropyl}-N-{[3-(4-{[(3S,4R)-3-fluoro-1-methylpiperidin-4-yl]amino}-1-(2,2,2-trifluoroethyl)-1H-indol-2-yl)-1,2,4-oxadiazol-5-yl]methyl}-1H-pyrrole-3-carboxamide] | * (* = 0 μM ≤ SC150 < 0.1 μM) |
| CN1CCC(Nc2cccc3c2cc(-c2noc(CNC(=O)[C@@H]4C[C@@H]4F)n2)n3CC(F)(F)F)CC1 (racemic) [Compound 147B, (1S,2S)-2-fluoro-N-[(3-{4-[(1-methylpiperidin-4-yl)amino]-1-(2,2,2-trifluoroethyl)-1H-indol-2-yl}-1,2,4-oxadiazol-5-yl)methyl]cyclopropane-1-carboxamide] | * (* = 0 μM ≤ SC150 < 0.1 μM) |
| CCn1ccc(C(=O)NCc2nc(-c3cc4c(N[C@@H]5CCN(C)C[C@@H]5F)cccc4n3CC(F)(F)F)no2)c1 [Compound 186B, 1-ethyl-N-{[3-(4-{[(3S,4R)-3-fluoro-1-methylpiperidin-4-yl]amino}-1-(2,2,2-trifluoroethyl)-1H-indol-2-yl)-1,2,4-oxadiazol-5-yl]methyl}-1H-pyrrole-3-carboxamide] | * (* = 0 μM ≤ SC150 < 0.1 μM) |
| CN1CC[C@@H](Nc2cccc3c2cc(-c2noc(CNC(=O)c4ccn(C5(C)CCOCC5)c4)n2)n3CC(F)(F)F)[C@@H](F)C1 [Compound 371B, N-{[3-(4-{[(3S,4R)-3-fluoro-1-methylpiperidin-4-yl]amino}-1-(2,2,2-trifluoroethyl)-1H-indol-2-yl)-1,2,4-oxadiazol-5-yl]methyl}-1-(4-methyloxan-4-yl)-1H-pyrrole-3-carboxamide] | * (* = 0 μM ≤ SC150 < 0.1 μM) |
| CN1CC[C@@H](Nc2cccc3c2cc(-c2noc(CNC(=O)c4cnn(CCF)c4)n2)n3CC(F)(F)F)[C@@H](F)C1 [Compound 301B] | * (* = 0 μM ≤ SC150 < 0.1 μM) |
| CC(C)(C)n1ccc(C(=O)NCc2nc(-c3cc4c(N[C@@H]5CCNC[C@@H]5F)cccc4n3CC(F)(F)F)no2)c1 [Compound 502B, 1-tert-butyl-N-{[3-(4-{[(3S,4R)-3-fluoropiperidin-4-yl]amino}-1-(2,2,2-trifluoroethyl)-1H-indol-2-yl)-1,2,4-oxadiazol-5-yl]methyl}-1H-pyrrole-3-carboxamide] | * (* = 0 μM ≤ SC150 < 0.1 μM) |
| CC(C)(C)n1cc(C(=O)NCc2nc(-c3cc4c(N[C@H]5CCCNC5)cccc4n3CC(F)(F)F)no2)cn1 [Compound 353B] | * (* = 0 μM ≤ SC150 < 0.1 μM) |
| CCN1CC[C@@H](Nc2cccc3c2cc(-c2noc(CNC(=O)c4ccn(C5CCCC5)c4)n2)n3CC(F)(F)F)[C@@H](F)C1 [Compound 320B, 1-cyclopentyl-N-{[3-(4-{[(3S,4R)-1-ethyl-3-fluoropiperidin-4-yl]amino}-1-(2,2,2-trifluoroethyl)-1H-indol-2-yl)-1,2,4-oxadiazol-5-yl]methyl}-1H-pyrrole-3-carboxamide] | * (* = 0 μM ≤ SC150 < 0.1 μM) |
| CN1CC[C@@H](Nc2cccc3c2cc(-c2cc(CNC(=O)c4ccn(C(C)(C)C)c4)cs2)n3CC(F)(F)F)[C@@H](F)C1 [Compound 283B, 1-tert-butyl-N-{[5-(4-{[(3S,4R)-3-fluoro-1-methylpiperidin-4-yl]amino}-1-(2,2,2-trifluoroethyl)-1H-indol-2-yl)thiophen-3-yl]methyl}-1H-pyrrole-3-carboxamide] | ** (** = 0.1 μM ≤ SC150 < 0.5 μM) |
| CC(C)C(=O)NCc1nnc(-c2cc3c(NC4CCN(C)CC4)cccc3n2CC(F)(F)F)s1 [Compound 57B, 2-methyl-N-[(5-{4-[(1-methylpiperidin-4-yl)amino]-1-(2,2,2-trifluoroethyl)-1H-indol-2-yl}-1,3,4-thiadiazol-2-yl)methyl]propanamide] | ** (** = 0.1 μM ≤ SC150 < 0.5 μM) |
| COCC(C)(C)n1cc(C(=O)NCc2nc(-c3cc4c(N[C@@H]5CCN(C(C)(C)C)C[C@@H]5F)cccc4n3CC(F)(F)F)no2)cn1 [Compound 412B, N-{[3-(4-{[(3S,4R)-1-tert-butyl-3-fluoropiperidin-4-yl]amino}-1-(2,2,2-trifluoroethyl)-1H-indol-2-yl)-1,2,4-oxadiazol-5-yl]methyl}-1-(1-methoxy-2-methylpropan-2-yl)-1H-pyrazole-4-carboxamide] | * (* = 0 μM ≤ SC150 < 0.1 μM) |
| CN1CC[C@@H](Nc2cccc3c2cc(-c2noc(CNC(=O)c4cn5c(n4)CCCC5)n2)n3CC(F)(F)F)[C@@H](F)C1 [Compound 541B, N-{[3-(4-{[(3S,4R)-3-fluoro-1-methylpiperidin-4-yl]amino}-1-(2,2,2-trifluoroethyl)-1H-indol-2-yl)-1,2,4-oxadiazol-5-yl]methyl}-5H,6H, 7H,8H-imidazo[1,2-a]pyridine-2-carboxamide] | * (* = 0 μM ≤ SC150 < 0.1 μM) |
| COC1CCC(n2ccc(C(=O)NCc3nc(-c4cc5c(N[C@@H]6CCN(C)C[C@@H]6F)cccc5n4CC(F)(F)F)no3)c2)C1 (stereo in doubt) [Compound 360B, N-{[3-(4-{[(3S,4R)-3-fluoro-1-methylpiperidin-4-yl]amino}-1-(2,2,2-trifluoroethyl)-1H-indol-2-yl)-1,2,4-oxadiazol-5-yl]methyl}-1-[(1R,3R)-3-methoxycyclopentyl]-1H-pyrrole-3-carboxamide] | * (* = 0 μM ≤ SC150 < 0.1 μM) |
| CN1CCC(Nc2cccc3c2cc(-c2nnc(CNC(=O)[C@@H]4C[C@@H]4C(=O)O)s2)n3CC(F)(F)F)CC1 (racemic) [Compound 81B, (+/−)-(1R,2S)-2-{[(5-{4-[(1-methylpiperidin-4-yl)amino]-1-(2,2,2-trifluoroethyl)-1H-indol-2-yl}-1,3,4-thiadiazol-2-yl)methyl]carbamoyl}cyclopropane-1-carboxylic acid] | ** (** = 0.1 μM ≤ SC150 < 0.5 μM) |
| CN1CC[C@@H](Nc2cccc3c2cc(-c2ccc(CNC(=O)c4cnn(C(C)(C)C)c4)cn2)n3CC(F)(F)F)[C@@H](F)C1 [Compound 285B, 1-tert-butyl-N-{[6-(4-{[(3S,4R)-3-fluoro-1-methylpiperidin-4-yl]amino}-1-(2,2,2-trifluoroethyl)-1H-indol-2-yl)pyridin-3-yl]methyl}-1H-pyrazole-4-carboxamide] | ** (** = 0.1 μM ≤ SC150 < 0.5 μM) |
| CC(C)(C)n1ccc(C(=O)NCc2nc(-c3cc4c(N[C@@H]5CCCC[C@H]5F)cccc4n3CC(F)(F)F)no2)c1 (racemic) [Compound 340B] | ** (** = 0.1 μM ≤ SC150 < 0.5 μM) |
| O=C(NCc1nc(-c2cc3c(NC4CCN(C5CC5)CC4)cccc3n2CC(F)(F)F)no1)C1CC1 [Compound 164B, N-[(3-{4-[(1-cyclopropylpiperidin-4-yl)amino]-1-(2,2,2-trifluoroethyl)-1H-indol-2-yl}-1,2,4-oxadiazol-5-yl)methyl]cyclopropanecarboxamide] | * (* = 0 μM ≤ SC150 < 0.1 μM) |

Same assay, conditions: concentration to increase DNA binding by […], incubated at either 27° C. or 29° C. for 60 min

| SMILES | SC150 (μM) |
| --- | --- |
| O=S1(=O)CCC(Nc2cccc3c2cc(-c2ccc(CNc4ccccc4)cc2)n3CC(F)(F)F)CC1 [Compound 9A, 4-[(2-{4-[(phenylamino)methyl]phenyl}-1-(2,2,2-trifluoroethyl)-1H-indol-4-yl)amino]-1λ^6-thiane-1,1-dione] | +++ (+++ = 5 μM ≤ SC150 < 10 μM) |
| COC(=O)Nc1cccc(-c2cc3c(NC4CCS(=O)(=O)CC4)cccc3n2CC(F)(F)F)c1 [Compound 25A, methyl N-(3-{4-[(1,1-dioxo-1λ^6-thian-4-yl)amino]-1-(2,2,2-trifluoroethyl)-1H-indol-2-yl}phenyl)carbamate] | +++ (+++ = 5 μM ≤ SC150 < 10 μM) |
